Where two headings read alike, the source gives them in different places.
Legend:
[1] = test system: Substance P induced scratch; experiment: Substance P induced scratch mouse model; conditions: SC or IV administration, top two rows of the table only, read-out: average in vivo efficacy ED50 for itch model
[2] = test system: infiltrating immune cells (CD45high) in brain of EAE mice; experiment: EAE model, immune cell infiltration into the brain by flow cytometry; type: in vivo, female C57BL/6 mice
[3] = test system: myelin in spinal cord of EAE mice; experiment: EAE model, TEM of spinal cord sections; type: in vivo, female C57BL/6 mice; conditions: 0.03 mg/kg daily i.p. from day 17; day 45
[4] = test system: cuprizone demyelination disease model of MS; experiment: Cuprizone model of demyelination, weight change; type: in vivo, female C57BL/6 mice
[5] = test system: cuprizone model of demyelination; experiment: Cuprizone model, rotarod assay (coordination); type: in vivo, female C57BL/6 mice; conditions: 0.1 mg/kg daily i.p.; week 9 relative to week 5
[6] = test system: myelin in corpus callosum of cuprizone-treated mice; experiment: Cuprizone model, TEM of corpus callosum (g-ratio, myelinated axons, myelin area); type: in vivo, female C57BL/6 mice
[7] = test system: myelin in spinal cord of EAE mice; experiment: EAE model, luxol fast blue staining of spinal cord (demyelination); type: in vivo, female C57BL/6 mice
[8] = test system: lymphocyte populations in the spleen of EAE mice; experiment: EAE model, splenocytes by flow cytometry; type: in vivo, female C57BL/6 mice; conditions: 0.01 mg/kg daily i.p. from onset
[9] = test system: leucocyte infiltration into the spinal cord of EAE mice; experiment: EAE model, H&E staining of spinal cord (leucocyte infiltration); type: in vivo, female C57BL/6 mice; conditions: 0.01 mg/kg daily i.p. from onset; chronic phase
[10] = test system: activated GFAP+ astrocytes in the spinal cord of EAE mice; experiment: EAE model, GFAP immunohistochemistry of spinal cord (activated astrocytes); type: in vivo, female C57BL/6 mice; conditions: 0.01 mg/kg daily i.p. from day 17; day 45
[11] = test system: cuprizone demyelination disease model of MS; experiment: Cuprizone model, von Frey mechanical withdrawal threshold; type: in vivo, female C57BL/6 mice; conditions: 0.1 mg/kg/i.p. daily
[12] = test system: Substance P induced scratch; conditions: cited from earlier work
[13] = test system: Morphine induced scratch; conditions: SC, EMA/CHMP/138212/2014; cited from earlier work
[14] = test system: Histamine induced scratch; conditions: PO, Togashi et al. (2002); cited from earlier work
[15] = test system: itch; conditions: human; cited from earlier work
[16] = cited from earlier work
[17] = 0.1 mg/kg/i.p. daily from day 28, day 70

## CN(C(=O)/C=C/c1ccoc1)[C@@H]1CC[C@@]2(O)[C@H]3Cc4ccc(O)c5c4[C@@]2(CCN3CC2CC2)[C@H]1O5 [nalfurafine, (E)-N-[(4R,4aS,7R,7aR,12bS)-3-(cyclopropylmethyl)-4a,9-dihydroxy-1,2,4,5,6,7,7a,13-octahydro-4,12-methanobenzofuro[3,2-e]isoquinoline-7-yl]-3-(furan-3-yl)-N-methylprop-2-enamide]
[1]
  ED50: ~2.71 µg/kg
[2]; 0.03 mg/kg daily i.p. from day 17, day 45
  number of infiltrating immune cells in brain (ratio to microglia): significantly reduced
[2]; 0.03 and 0.01 mg/kg daily i.p. from onset, chronic phase (>24 days)
  number of infiltrating immune cells in brain (ratio to microglia): significantly reduced
[3]
  myelination of nerve axons in spinal cord (TEM): healthy and well-myelinated
[4]; 0.1 mg/kg daily i.p. from day 28, cuprizone 35 days, vs vehicle or U-50488
  % weight change in recovery phase: enhances recovery of the lost weight faster
[4]; 0.1 mg/kg daily i.p. from week 4, 0.3% cuprizone 5 weeks, vs vehicle (Example 7)
  % weight change (reversal of cuprizone weight loss): reversed significantly more effectively
[5]
  rotarod performance (coordination): reversed
[6]; 0.1 mg/kg daily i.p. from week 4, day 65 (Example 9)
  myelin in corpus callosum (TEM, g-ratio): more myelin was detected
[6]; [17]
  area of myelin staining per TEM image: percentage increase in area of myelination
  mean g-ratio (corpus callosum): 0.75±0.15
  number of myelinated axons vs non-myelinated axons: percentage increase in the number of myelinated axons
[7]; 0.01 mg/kg daily i.p. from onset, chronic phase (Example 25)
  lesion load and myelin density in ventral horn (luxol fast blue): reduces this lesion load and demyelination
[7]; 0.03 or 0.01 mg/kg daily i.p. from onset, chronic phase
  % demyelination of spinal cord (luxol fast blue): significant reduction
[8]; 27 days post treatment initiation
  proportion of major lymphocyte populations in spleen (CD4, CD8, B220; % live leukocytes): do not alter
[8]; 27 days, vs vehicle
  Teff:cm ratio (effector to central memory CD4 T cells): reduced ratio
  overall number of CD4 T cells in spleen: the same
[9]
  leucocyte infiltration score (0-3), H&E: reduction of infiltrating leucocytes
[10]
  number of activated GFAP+ astrocytes per section: significantly reduces
[11]; pre vs post treatment
  mechanical withdrawal threshold (von Frey): reduced to baseline levels
[11]; vs vehicle treated mice
  mechanical threshold scores (von Frey): improved mechanical threshold scores
[12]; IV, EMA/CHMP/138212/2014
  Complete Inhibition: 7.5 to 10 µg/kg
  ED50: 3.77 µg/kg
[12]; PO, 100 μg/kg, EMA/CHMP/138212/2014
  Inhibition reached at the dose given under Complete Inhibition: (66%)
[12]; PO, EMA/CHMP/138212/2014
  Complete Inhibition: 100 µg/kg
  ED50: 9.61 µg/kg
[12]; PO, Togashi et al. (2002)
  Complete Inhibition: 100 µg/kg
  ED50: 19.6 µg/kg
[12]; SC, EMA/CHMP/138212/2014
  Complete Inhibition: 10 µg/kg
  ED50: 1.65 µg/kg
[13]
  Complete Inhibition: 5 to 10 µg/kg
  ED50: 2.34 µg/kg
[14]
  Complete Inhibition: 30 to 100 µg/kg
  ED50: 7.3 µg/kg
[15]
  effective dose in humans for itch: 2.5 μg/body/day
[16]; intravenous (IV)
  Bioavailability: 100%
[16]; oral (PO) administration
  Bioavailability: ~32%
[16]; subcutaneous (s.c.)
  Bioavailability: 96%
